In US20110166142A1, “2-SUBSTITUTED ISOFLAVONOID COMPOUNDS, MEDICAMENTS AND USES” (priority 2007, published 2011):
Read-outs that look alike come from different tables or passages of the source.

Columns and labels:
[1] = Free radical scavenging (DPPH); conditions: for EC50: 0.1 mM DPPH in ethanol, 20 minutes, absorbance 517 nm, concentration causing 0.6 change in absorbance, read-out: Free radical scavenging ability EC50; for free radical scavenging activity: DPPH
Experimental: The antioxidant (free radical trapping) activity of test compounds was assessed using the stable free radical compound 2,2-diphenyl-1-picrylhydrazyl (DPPH). A stock solution of DPPH was prepared at a concentration of 0.1 mM in ethanol and mixed for 10 minutes prior to use. Test compounds at a concentration of 100 μM were reacted with DPPH for 20 minutes, after which time the absorbance at 517 nm was determined and the change in absorbance compared to a reagent blank (DPPH with ethanol alone). A dose response curve was produced for those compounds with free radical scavenging activity (ΔAbs>0.3) at 100 μM. The IC50 value was estimated as the concentration of test compound that caused a 0.6 change in absorbance (with 1.2 absorbance units representing total scavenging of the DPPH radical).

[2] = tested on: Neonatal foreskin fibroblasts (NFF); assay: Toxicity to normal cells: neonatal foreskin fibroblasts (MTT); type: cell-based; conditions: Homo sapiens, Fibroblast, 120 h, 5 days, mean ± SD, maximum concentration 150 μM
Experimental: (§1) Neonatal foreskin fibroblasts (NFF), a gift from Dr. Peter Parsons (Queensland Institute of Medical Research) were cultured in RPMI supplemented with 10% FBS (Gibco, Australia), penicillin (100 U/ml), streptomycin ([…]), L-glutamine (2 mM) and sodium bicarbonate (1.2 g/L), and cultured at 37° C. in a humidified atmosphere of 5% CO2 for 5 days. Test compounds were added in serial two-fold dilutions from 150 μM in triplicate. These assays were run twice.
(§2) Cell proliferation was assessed after the addition of 20 μl of 3-4,5 dimethylthiazol-2,5-diphenyl tetrazolium bromide (MTT, 5 mg/ml in PBS, Sigma) for 3 hrs at 37° C. according to manufacturer's instructions, by comparing mean absorbance values of test compounds with that of the control.

[3] = tested on: RAW 264.7 macrophage; assay: Toxicity to normal cells: RAW 264.7 macrophage (MTT); type: cell-based; conditions: Mus musculus, RAW264.7, 24 hours, single assay, maximum concentration 150 μM
Experimental: (§3) In a single assay, RAW 264.7 cells were seeded in 96-well plates at an appropriate cell density as determined from growth kinetics analysis and cultured for 24 hours in the absence and presence of the test compounds. Test compounds were added in serial two-fold dilutions from 150 μM in triplicate.
as §2

[4] = tested on: panel of normal, non-transformed cells; assay: Toxicity to normal cells, overall statement (NFF and RAW 264.7); type: cell-based; conditions: maximum concentration examined 150 μM
Experimental: as §1, §3, §2

[5] = tested on: CP70; assay: Anti-cancer activity, ovarian CP70 (MTT); type: cell-based; conditions: 5 days, Geometric Mean ± SD (Log-normal Distribution)
Experimental: The ovarian cancer cell line, CP70 was obtained as a gift from Dr. Gil Mor (Yale University) and routinely cultured in DMEM/Hams F-12 1:1 (Gibco, Cat#11320-082) supplemented with 10 mM HEPES (Sigma, Cat#H0887), 1× non essential amino acids (Sigma, Cat#M7145), 5.0 g/L sodium bicarbonate (Sigma, Cat#S5761), and 1 mM sodium pyruvate (Sigma, Cat#S8636).
(§4) All cultures were supplemented with 10% FBS (Gibco, Cat#10099-158), 5000 U/ml penicillin and 5 mg/ml streptomycin (Gibco, Cat#15070), and cultured at 37° C. in a humidified atmosphere of 5% CO2.
(§5) IC50 values were determined for each cell line. Cells were seeded in 96-well plates at an appropriate cell density as determined from growth kinetics analysis and cultured for 5 days in the absence and presence of the test compounds. Cell proliferation was assessed after the addition of 20 μl of 3-4,5 dimethylthiazol-2,5-diphenyl tetrazolium bromide (MTT, 2.5 mg/ml in PBS, Sigma) for 3-4 hrs at 37° C. according to manufacturer's instructions. IC50 values were calculated from semi-log plots of % of control proliferation on the y-axis against log dose on the x-axis.

[6] = tested on: HPAC; assay: Anti-cancer activity, pancreatic HPAC (MTT); type: cell-based; conditions: Homo sapiens, 120 h, 5 days, Geometric Mean ± SD (Log-normal Distribution)
Experimental: The human pancreatic cancer cell line, HPAC (CRL-2119) was routinely cultured in DMEM/Hams F-12 1:1 (Gibco) and supplemented with 15 mM HEPES, 0.002 mg/ml insulin (Sigma, Cat#I9278), 0.005 mg/ml transferrin (Sigma, Cat#T8158), 40 ng/ml hydrocortisone (Sigma, Cat#H0135) and 10 ng/ml epidermal growth factor (Sigma, Cat#E4269).
as §4, §5

[7] = tested on: HT-29; assay: Anti-cancer activity, colorectal HT-29 (MTT); type: cell-based; conditions: Homo sapiens, HT-29, 120 h, 5 days, Geometric Mean ± SD (Log-normal Distribution)
Experimental: (§6) The colon adeno-carcinoma cell line HT-29 (HTB-38™) and prostate adenocarcinoma cell line PC-3 (CRL-435™) were cultured in RPMI 1640 medium (Gibco, Cat#21870-076).
as §4, §5

[8] = tested on: MDA-MB-468; assay: Anti-cancer activity, breast MDA-MB-468 (MTT); type: cell-based; conditions: Homo sapiens, MDA-MB-468, 120 h, 5 days, Geometric Mean ± SD (Log-normal Distribution)
[9] = tested on: MM200; assay: Anti-cancer activity, melanoma MM200 (MTT); type: cell-based; conditions: 120 h, 5 days, Geometric Mean ± SD (Log-normal Distribution)
[10] = tested on: NCI-H460; assay: Anti-cancer activity, lung NCI-H460 (MTT); type: cell-based; conditions: Homo sapiens, NCI-H460, 120 h, 5 days, Geometric Mean ± SD (Log-normal Distribution)
Experimental: The large cell lung cancer cell line NCI-H460 was cultured in RPMI 1640 medium additionally supplemented with 4.5 g/L glucose (Sigma, Cat#G8769), 5.0 g/L sodium pyruvate, 5 g/L sodium bicarbonate and buffered with 10 mM HEPES.
as §4, §5

[11] = tested on: PC-3; assay: Anti-cancer activity, prostate PC-3 (MTT); type: cell-based; conditions: Homo sapiens, PC-3, 120 h, 5 days, Geometric Mean ± SD (Log-normal Distribution)
Experimental: as §6, §4, §5

[12] = tested on: various cell lines representative of different cancer indications; assay: Anti-cancer activity, summary over several cell lines; type: cell-based
Experimental: as §5

[13] = tested on: LPS-induced NO synthesis; assay: LPS-induced NO (nitrite) production in RAW 264.7 macrophages (Griess Reaction); type: cell-based, mouse; conditions: 10 μM; FIG. 3
Experimental: The mouse macrophage cell line RAW 264.7 was cultured in DMEM supplemented with foetal bovine serum (FBS), 2 mM glutamine and 50 U/ml penicillin/streptomycin (pen/strep). Cells were treated with either test compound (in 0.025% DMSO) or vehicle alone, and added one hour before 50 ng/ml LPS. After incubation for 24 hrs, culture media was collected for PGE2 or TXB2 measurement by ELISA (Cayman Chemical). The effect of test compounds at 10 μM on cell viability was examined using an MTT assay.
Nitrite concentration is a quantitative indicator of NO production (Wang et al. 2002) and was determined by the Griess Reaction (Coligan et al. 1994). Briefly, 100 μL of Griess reagent was added to 50 μL of each supernatant in duplicate in two separate assays, run as for the examination of PGE2 etc. The absorbance at 550 nm was measured, and nitrite concentrations were determined against a standard curve of sodium nitrite.

[14] = read-out: IC50 RAW 264.7 macrophage Unstimulated
[15] = read-out: IC50 RAW 264.7 macrophage with LPS
[16] = read-out: IC50 range against MDA-MB-468 and PC-3 cell lines

| Structure (SMILES) | EC50 [1] | IC50 [12, 16] | IC50 [2] | IC50 [3, 14] | IC50 [3, 15] | toxicity in the tests performed [4] | IC50 [6] | IC50 [8] | IC50 [9] | IC50 [10] | IC50 [11] | further results |
| --- | --- | --- | --- | --- | --- | --- | --- | --- | --- | --- | --- | --- |
| C=CCC1Oc2cc(O)ccc2C=C1c1ccc(O)cc1 (stereo not drawn) [Compound 1] | 22.8 µM | – | 14.7 ± 3.05 µM | 4.7 µM | 2.2 µM | markedly toxic | 5.21 ± 1.88 µM | 3.25 ± 1.51 µM | 6.37 ± 1.39 µM | 6.72 ± 1.05 µM | 3.96 ± 2.02 µM | IC50 ([5]; 120 h): 8.39 ± 2.8 µM; IC50 [7]: 9.36 ± 2.88 µM; IC50 ([12]; read-out: IC50 range against all cell lines tested): 3 to 10 µM |
| CCC1Oc2cc(O)ccc2C=C1c1ccc(O)cc1 (stereo not drawn) [Compound 2] | – | 2 to 29 µM | 97.8 ± 1 µM | 15.2 µM | 90.6 µM | mild to moderate toxicity | 56 ± 1.03 µM | 2.41 ± 1.26 µM | 70.9 ± 1 µM | – | 4.14 ± 1.04 µM | – |
| CC1Oc2cc(O)ccc2C=C1c1ccc(O)cc1 (stereo not drawn) [Compound 3] | – | – | 140.3 ± 1.07 µM | 9.3 µM | 102 µM | mild to moderate toxicity | 59.3 ± 1.28 µM | 5.18 ± 1.09 µM | 69.4 ± 1.22 µM | 12.6 ± 1.1 µM | 12 ± 1.22 µM | IC50 ([5]; 120 h): 8.39 ± 1.13 µM; IC50 [7]: 110.1 ± 1.03 µM; IC50 ([12]; read-out: IC50 range against CP70, MDA-MB-468, NCI-H460 and PC-3 cell lines): 5 to 13 µM |
| CCC1Oc2cc(O)ccc2CC1c1ccc(O)cc1 (stereo not drawn) [Compound 4] | – | 2 to 29 µM | 122.2 ± 1 µM | 28.3 µM | > 150 µM | mild to moderate toxicity | 103 ± 1.16 µM | 7.23 ± 1.07 µM | – | – | 16.6 ± 1.08 µM | – |
| Cc1c(O)ccc2c1OC(C)C(c1ccc(O)cc1)=C2 (stereo not drawn) [Compound 5] | 44.8 µM | 2 to 29 µM | > 150 µM | > 150 µM | > 150 µM | no toxicity | 84.4 ± 1.34 µM | 16.7 ± 1.18 µM | – | 41.1 ± 1 µM | 29 ± 1.05 µM | – |
| CC1Oc2cc(O)ccc2CC1c1ccc(O)cc1 (stereo not drawn) [Compound 8] | – | – | > 150 µM | > 150 µM | > 150 µM | no toxicity | ≥ 150 µM | 66.3 ± 1.05 µM | – | – | 78.7 ± 1.26 µM | activity against the cell lines tested ([12]; HPAC, MDA-MB-468 and PC-3): little activity |
| Oc1ccc(C2=Cc3ccc(O)cc3OC2O)cc1 (stereo not drawn) [Compound 16, 2,4′,7-Trihydroxy-isoflav-3-ene] | – | – | – | – | – | – | – | – | – | – | – | melting point: > 325 °C |
| CC(=O)Oc1ccc(C2=Cc3ccc(OC(C)=O)cc3OC2C#N)cc1 (stereo not drawn) [Example 17, 4′,7-Diacetoxy-2-cyano-isoflav-3-ene] | – | – | – | – | – | – | – | – | – | – | – | melting point: 156 to 158 °C |
| CC(=O)Oc1ccc(C2=Cc3ccc(OC(C)=O)cc3OC2CNC(=O)OC(C)(C)C)cc1 (stereo not drawn) [Example 23, 4′,7-Diacetoxy-2-(N—(BOC)aminomethyl)-isoflav-3-ene] | – | – | – | – | – | – | – | – | – | – | – | melting point: 52 to 54 °C |

The next lines start with results.

| EC50 [1] | IC50 [12, 16] | Structure (SMILES) | IC50 [2] | IC50 [3, 14] | IC50 [3, 15] | toxicity in the tests performed [4] | IC50 [6] | IC50 [8] | IC50 [9] | IC50 [10] | IC50 [11] | further results |
| --- | --- | --- | --- | --- | --- | --- | --- | --- | --- | --- | --- | --- |
| 49.6 µM | 14 to 32 µM | CC1Oc2cc(O)ccc2C=C1c1cccc(O)c1 (stereo not drawn) [Compound 6] | 138.6 ± 1.05 µM | > 150 µM | 140 µM | mild to moderate toxicity | 74.6 ± 1.24 µM | 17 ± 1 µM | 137.8 ± 1.16 µM | 114.8 ± 1 µM | 31.7 ± 1.05 µM | IC50 ([5]; 120 h): 72.9 ± 1.07 µM; IC50 [7]: ≥ 150 µM |
| 38.4 µM | 14 to 32 µM | Cc1cc(O)cc2c1C=C(c1ccc(O)cc1)C(C)O2 (stereo not drawn) [Compound 7] | 126.6 ± 1.01 µM | 98.8 µM | 115 µM | mild to moderate toxicity | 60.5 ± 1.21 µM | 14.5 ± 1.07 µM | 102 ± 1.27 µM | 51.5 ± 1.03 µM | 31.9 ± 1.47 µM | IC50 ([5]; 120 h): ~31 µM; IC50 [5]: 31.1 ± 1.06 µM; IC50 [7]: ≥ 150 µM |
| 21.8 µM | – | COC1Oc2cc(O)ccc2C=C1c1ccc(O)cc1 (stereo not drawn) [Compound 13, 4′,7-Dihydroxy-2-methoxy-isoflav-3-ene] | – | – | – | – | – | – | – | – | – | – |
| 24.1 µM | – | CCOC1Oc2cc(O)ccc2C=C1c1ccc(O)cc1 (stereo not drawn) [Compound 14, 2-Ethoxy-4′,7-dihydroxy-isoflav-3-ene] | – | – | – | – | – | – | – | – | – | – |
| 20 µM | – | CCSC1Oc2cc(O)ccc2C=C1c1ccc(O)cc1 (stereo not drawn) [Compound 18, 2-Ethylthio-4′,7-dihydroxy-isoflav-3-ene] | – | – | – | – | – | – | – | – | – | – |
| 55.1 µM | – | Oc1ccc(C2=Cc3ccc(O)cc3OC2)cc1 [Compound 37-DHE, reference compound] | – | – | – | – | – | – | – | – | – | production of nitrite by macrophages stimulated by LPS [13]: did not inhibit; free radical scavenging activity [1]: only low activity |
| > 100 µM | – | Oc1ccc([C@H]2COc3cc(O)ccc3C2)cc1 [Eq, equol, reference compound] | – | – | – | – | – | – | – | – | – | production of nitrite by macrophages stimulated by LPS [13]: did not inhibit; free radical scavenging activity [1]: not active |
